Measured values reported in US9695155B2, “Herbicidal substituted pyrimidinyloxy benzene compounds” (E. I. DU PONT DE NEMOURS AND COMPANY, priority 2013, dated 2017).

Legend:
Italian ryegrass [1] = assay: Test A preemergence; assay type: in vivo, Lolium multiflorum; conditions: 1000 g ai/ha, 0 to 100 scale, 0 no effect, 100 complete control, approx. 10 days
Description: (§1) Seeds of plant species selected from barnyardgrass (Echinochloa crus-galli), kochia (Kochia scoparia), ragweed (common ragweed, Ambrosia elatior), Italian ryegrass (Lolium multiflorum), large (Lg) crabgrass (Digitaria sanguinalis), giant foxtail (Setaria faberii), morningglory (Ipomoea spp.), pigweed (Amaranthus retroflexus), velvetleaf (Abutilon theophrasti), wheat (Triticum aestivum), and corn (Zea mays) were planted into a blend of loam soil and sand and treated preemergence with a directed soil spray using test chemicals formulated in a non-phytotoxic solvent mixture which included a surfactant.
(§2) At the same time, plants selected from these crop and weed species and also blackgrass (Alopecurus myosuroides), and galium (catchweed bedstraw, Galium aparine) were planted in pots containing the same blend of loam soil and sand and treated with postemergence applications of test chemicals formulated in the same manner. Plants ranged in height from 2 to 10 cm and were in the one- to two-leaf stage for the postemergence treatment. Treated plants and untreated controls were maintained in a greenhouse for approximately 10 days, after which time all treated plants were compared to untreated controls and visually evaluated for injury. Plant response ratings, summarized in Table A, are based on a 0 to 100 scale where 0 is no effect and 100 is complete control. A dash (-) response means no test result.

giant foxtail [2] = assay: Test A preemergence; assay type: in vivo, Setaria faberii; conditions: 1000 g ai/ha, 0 to 100 scale, 0 no effect, 100 complete control, approx. 10 days
In short: (§3)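 Compounds in non-phytotoxic solvent with surfactant applied as soil spray preemergence, or postemergence to plants 2-10 cm at one- to two-leaf stage, in loam/sand. After approximately 10 days in greenhouse, injury rated visually versus untreated controls, 0 (no effect) to 100 (complete control).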

kochia [3] = assay: Test A preemergence; assay type: in vivo, Kochia scoparia; conditions: 1000 g ai/ha, 0 to 100 scale, 0 no effect, 100 complete control, approx. 10 days
Description: as §1, §2

pigweed [4] = assay: Test A postemergence; assay type: in vivo, Amaranthus retroflexus; conditions: 1000 g ai/ha, 0 to 100 scale, 0 no effect, 100 complete control
In short: as §3

blackgrass = assay: Test A postemergence; assay type: in vivo, Alopecurus myosuroides; conditions: 1000 g ai/ha, 0 to 100 scale, 0 no effect, 100 complete control
Description: as §1, §2

pigweed [5] = assay: Test A preemergence; assay type: in vivo, Amaranthus retroflexus; conditions: 1000 g ai/ha, 0 to 100 scale, 0 no effect, 100 complete control, approx. 10 days
In short: as §3

kochia [6] = assay: Test A postemergence; assay type: in vivo, Kochia scoparia; conditions: 1000 g ai/ha, 0 to 100 scale, 0 no effect, 100 complete control
Description: as §1, §2

galium = assay: Test A postemergence; assay type: in vivo, Galium aparine; conditions: 1000 g ai/ha, 0 to 100 scale, 0 no effect, 100 complete control
Description: as §1, §2

Italian ryegrass [7] = assay: Test A postemergence; assay type: in vivo, Lolium multiflorum; conditions: 1000 g ai/ha, 0 to 100 scale, 0 no effect, 100 complete control
Description: as §1, §2

barnyardgrass [8] = assay: Test A preemergence; assay type: in vivo, Echinochloa crus-galli; conditions: 1000 g ai/ha, 0 to 100 scale, 0 no effect, 100 complete control; for Barnyardgrass plant response rating: approx. 10 days
In short: as §3

giant foxtail [9] = assay: Test A postemergence; assay type: in vivo, Setaria faberii; conditions: 1000 g ai/ha, 0 to 100 scale, 0 no effect, 100 complete control
In short: as §3

ragweed [10] = assay: Test A postemergence; assay type: in vivo, Ambrosia elatior; conditions: 1000 g ai/ha, 0 to 100 scale, 0 no effect, 100 complete control
Description: as §1, §2

wheat = assay: Test A postemergence; assay type: in vivo, Triticum aestivum; conditions: 1000 g ai/ha, 0 to 100 scale, 0 no effect, 100 complete control
In short: as §3

barnyardgrass [11] = assay: Test A postemergence; assay type: in vivo, Echinochloa crus-galli; conditions: 1000 g ai/ha, 0 to 100 scale, 0 no effect, 100 complete control
In short: as §3

ragweed [12] = assay: Test A preemergence; assay type: in vivo, Ambrosia elatior; conditions: 1000 g ai/ha, 0 to 100 scale, 0 no effect, 100 complete control, approx. 10 days
Description: as §1, §2

corn = assay: Test A postemergence; assay type: in vivo, Zea mays; conditions: 1000 g ai/ha, 0 to 100 scale, 0 no effect, 100 complete control
In short: as §3

Row | Compound | Ryegrass, Italian plant response rating (Italian ryegrass [1]) | Foxtail, Giant plant response rating (giant foxtail [2]) | Kochia plant response rating (kochia [3]) | Plant response rating, Pigweed (pigweed [4]) | Plant response rating, Blackgrass (blackgrass) | Pigweed plant response rating (pigweed [5]) | Plant response rating, Kochia (kochia [6]) | Plant response rating, Galium (galium) | Plant response rating, Ryegrass, Italian (Italian ryegrass [7]) | Plant response rating, Barnyardgrass (barnyardgrass [8]) | Plant response rating, Foxtail, Giant (giant foxtail [9]) | Plant response rating, Ragweed (ragweed [10]) | Plant response rating, Wheat (wheat) | Plant response rating, Barnyardgrass (barnyardgrass [11]) | Ragweed plant response rating (ragweed [12]) | Plant response rating, Corn (corn) | Barnyardgrass plant response rating (barnyardgrass [8])
1 | Fc1cccc(Oc2ncc(Cl)cn2)c1-n1cc(C2CCCCC2)nn1 [Compound 102] | 0 | 100 | 0 | 80 | 40 | 20 | 30 | 70 | 0 | 50 | 40 | 20 | 0 | 50 | 0 | 20 | 
2 | O=Cc1cn(-c2c(F)cccc2Oc2ncc(Cl)cn2)nn1 [Compound 139] | 0 | 0 | 0 | 30 | 0 | 50 | 0 | 10 | 0 |  | 0 | 0 | 0 | 0 | 0 | 20 | 0
3 | CCNC(=O)c1cccc(Oc2ncc(Cl)cn2)c1-n1cc(C(F)(F)F)cn1 [Compound 257] | 20 | 70 | 70 | 40 | 10 | 80 | 60 | 30 | 0 |  | 10 | 30 | 0 | 10 | 70 | 0 | 50
